In patent US5079263A, “Manumycin derivatives and the use thereof” (Behringwerke Aktiengesellschaft, priority 1987, dated 1992):

Target: T1, PMN elastase (Homo sapiens, UniProt P08246)
T1 construct: The elastase was isolated from human leukocytes; from tissue; host or cells: human leukocytes
T1 sequence (P08246 30-247 limits assumed): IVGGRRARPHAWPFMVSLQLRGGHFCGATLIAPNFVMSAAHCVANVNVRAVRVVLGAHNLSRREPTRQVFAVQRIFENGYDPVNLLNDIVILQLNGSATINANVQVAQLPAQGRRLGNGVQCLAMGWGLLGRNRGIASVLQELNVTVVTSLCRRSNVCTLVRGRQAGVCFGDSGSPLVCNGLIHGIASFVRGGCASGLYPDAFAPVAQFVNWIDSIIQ
Test: Assay for Elastase from Polymorphonuclear Granulocytes (PMN Elastase)
Assay type: biochemical
Parameters: key to inhibiting effect in PMN elastase assay (inactive): Substances which showed no inhibiting effect at the maximum concentration of 100 μg/ml were defined as inactive
Conditions: for IC50: 1 hour preincubation with enzyme, substrate MeO-Suc-Ala-Ala-Pro-Val-pNA, 15 minutes, 405 nm, maximum 100 μg/ml, read-out: IC50 (inhibiting effect on PMN elastase) (converted); for inhibiting effect on PMN elastase, comparison in words: compared with manumycin / compounds (1) to (3)
Description: The elastase was isolated from human leukocytes by the method described by Engelbrecht et al. (Hoppe-Seyler's Physiol. Chem. 363, pp. 305-315, 1982). The substrate used was the MeO-Suc-[…] (Calbiochem) described by Nakajima et al. (J. Biol. Chem. 254, pp. 4027-4032, 1979). The Liberation of the p-nitroaniline from the substrate in 15 minutes was measured as the increase in absorption at 405 nm in a spectrophotometer. This absorption was defined as 100% activity of the enzyme PMN elastase. The inhibitors of PMN elastase were preincubated in increasing concentrations up to a maximum of 100 μg/ml with the enzyme for 1 hour, and the enzyme reaction was started with the substrate. The IC50 was defined as that inhibitor concentration which inhibits 50% of the enzyme activity.

Q: For `CCCC[C@@H](C)/C=C(C)/C=C(\C)C(=O)Nc1cc(/C=C/C=C/C=C/C(=O)NC2=C(O)CCC2=O)c(O)cc1O` [Compound (1)], which “inhibition of leukocyte elastase, in words” value (shortened to “inhibition”) is on record?
A: inhibit leukocyte elastase

Q: What about the IC50 of the same compound?
A: 4.68 µM

Q: With `CCCC[C@@H](C)/C=C(C)/C=C(\C)C(=O)Nc1cc(/C=C/C=C/C=C/C(=O)NC2=C(O)CCC2=O)ccc1O` [Compound (2)] as the compound, how does the “inhibition” value read?
A: inhibit leukocyte elastase

Q: And the IC50?
A: 5.98 µM

Q: With `CCCC[C@@H](C)/C=C(C)/C=C(\C)C(=O)Nc1cccc(/C=C/C=C/C=C/C(=O)NC2=C(O)CCC2=O)c1` [Compound (3)] as the compound, how does the “inhibition” value read?
A: inhibit leukocyte elastase

Q: What about the IC50 of the same compound?
A: 7.16 µM

Q: `Nc1cccc(/C=C/C=C/C=C/C(=O)NC2=C(O)CCC2=O)c1` [Compound (4)] was tested. Which “inhibiting effect in PMN elastase assay (inactive)” value (maximum concentration 100 μg/ml, "--" in Table 2) did it give?
A: inactive

Q: How did the “inhibition” value turn out when `Nc1ccc(/C=C/C=C/C=C/C(=O)NC2=C(O)CCC2=O)cc1` [Compound (5)] was run?
A: inhibit leukocyte elastase

Q: What about the IC50 of the same compound?
A: 135 µM

Q: And the “inhibiting effect on PMN elastase, comparison in words” value?
A: distinctly weaker inhibiting effect

Q: For `CCCCC(C)C=C(C)C=C(C)C(=O)NC1=CC(O)(C=CC=CC=CC(=O)NC2=C(O)CCC2=O)C2OC2C1=O` (stereo not drawn) [Manumycin, manumycin], which IC50 is on record?
A: 7.99 µM

Q: And the “inhibiting effect on PMN elastase, comparison in words” value?
A: comparable to that of the compounds (1) to (3)
